pEC50, pIC50: −log10 of the molar value.
Key:
[1] = target: T1, human Cot catalytic domain (30-397 amino acids) (Homo sapiens, UniProt P41279); experiment: High Throughput Cot Biochemical Assay (KinEASE TR-FRET); details: Cot biochemical HTRF (KinEASE TR-FRET) assay; read-out: IC50 HTRF
T1 construct: Purified recombinant human Cot catalytic domain (30-397 amino acids) was purchased from Cama Biosciences; purchased Cama Biosciences (so in the source)
Outline: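 Recombinant human Cot catalytic domain (aa 30-397), 5 nM, with 1 μM STK3 peptide and 400 μM ATP in MOPS pH 7.0 buffer with MgOAc, DTT, BSA, NP-40, glycerol, 0.1% DMSO. Phosphorylated XL665-peptide detected by Eu-[…] antibody TR-FRET.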

[2] = test system: TNFα production in LPS-stimulated human monocytes; experiment: Cot Monocyte TNFα Cell Based Assay; details: Homo sapiens, Monocyte, TNFα in LPS-stimulated human monocytes; read-out: EC50 TNF
Outline: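 Human monocytes (5,000 cells/well) pretreated with compound for 1 hour at 37° C (0.5% DMSO), then stimulated with 50 pg/ml LPS for 4 hours. Total TNFα measured by TR-FRET after overnight antibody incubation at room temp, expressed as percent of control between unstimulated and stimulated cells.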

T1 sequence (P41279 30-397): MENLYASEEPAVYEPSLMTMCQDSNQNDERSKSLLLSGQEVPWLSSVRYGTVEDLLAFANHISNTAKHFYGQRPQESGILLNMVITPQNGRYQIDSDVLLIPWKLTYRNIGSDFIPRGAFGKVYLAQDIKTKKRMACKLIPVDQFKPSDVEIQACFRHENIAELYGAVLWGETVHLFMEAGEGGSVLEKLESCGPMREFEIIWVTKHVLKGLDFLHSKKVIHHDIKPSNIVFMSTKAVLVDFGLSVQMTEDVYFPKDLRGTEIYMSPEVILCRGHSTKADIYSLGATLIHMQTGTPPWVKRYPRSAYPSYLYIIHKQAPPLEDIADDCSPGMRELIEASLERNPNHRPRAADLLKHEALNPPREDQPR

SMILES	pIC50 [1]	pEC50 [2]
CC(C)(C)N1CCC(n2cc([C@@H](Nc3cc(Cl)c4ncc(C#N)c(Nc5cc(Cl)ccc5Cl)c4c3)c3ccccc3)nn2)CC1 [Example 527, (S)-6-(((1-(1-(tert-butyl)piperidin-4-yl)-1H-1,2,3-triazol-4-yl)(phenyl)methyl)amino)-8-chloro-4-((2,5-dichlorophenyl)amino) quinoline-3-carbonitrile]	7.28	5.86
CC[N+](C)(CC)CCn1cc([C@@H](Nc2cc(Cl)c3ncc(C#N)c(Nc4ccc(Cl)c(Cl)c4F)c3c2)c2ccccc2)nn1 [Example 530, (S)-2-(4-(((8-chloro-3-cyano-4-((3,4-dichloro-2-fluorophenyl)amino)quinolin-6-yl)amino)(phenyl)methyl)-1H-1,2,3-triazol-1-yl)-N,N-diethyl-N-methylethan-1-aminium]	6.70	< 5.00
N#Cc1cnc2c(Cl)cc(N[C@@H](c3cccc(N4CCCC4=O)c3)c3c[nH]nn3)cc2c1Nc1ccc(Cl)c(Cl)c1F [Example 531, (S)-8-chloro-4-((3,4-dichloro-2-fluorophenyl)amino)-6-(((3-(2-oxopyrrolidin-1-yl)phenyl)(1H-1,2,3-triazol-4-yl)methyl)amino)quinoline-3-carbonitrile]	7.80	6.31
CC[C@@H](Nc1c(C#N)cnc2c(Cl)cc(N[C@@H](c3c[nH]nn3)c3ccccc3Cl)cc12)c1ccccc1 [Example 532, 8-chloro-6-(((R)-(2-chlorophenyl)(1H-1,2,3-triazol-4-yl)methyl)amino)-4-(((R)-1-phenylpropyl)amino)quinoline-3-carbonitrile]	< 5.00	< 5.00
N#Cc1cnc2c(Cl)cc(N[C@@H](c3ccccc3)c3cn(C4CCCC4)nn3)cc2c1Nc1ccc(Cl)c(Cl)c1F [Example 534, (S)-8-chloro-6-(((1-cyclopentyl-1H-1,2,3-triazol-4-yl)(phenyl)methyl)amino)-4-((3,4-dichloro-2-fluorophenyl)amino) quinoline-3-carbonitrile]	7.24	5.50
CC[C@@H](Nc1c(C#N)cnc2c(Cl)cc(N[C@@H](c3ccccc3)c3cn(CCCN4CCCC4)nn3)cc12)c1ccccc1 [Example 536, 8-chloro-6-(((S)-phenyl (1-(3-(pyrrolidin-1-yl)propyl)-1H-1,2,3-triazol-4-yl)methyl)amino)-4-(((R)-1-phenylpropyl)amino)quinoline-3-carbonitrile]	8.52	7.08
CC[C@@H](Nc1c(C#N)cnc2c(Cl)cc(N[C@@H](c3ccc(F)cc3)c3c[nH]nn3)cc12)c1ccccc1 [Example 537, 8-chloro-6-(((S)-(4-fluorophenyl)(1H-1,2,3-triazol-4-yl)methyl)amino)-4-(((R)-1-phenylpropyl)amino) quinoline-3-carbonitrile]	7.77	6.34
CC(C)(C)N1CCC(n2cc([C@@H](Nc3cc(Cl)c4ncc(C#N)c(N[C@@H]5CCCOC5)c4c3)c3ccccc3)nn2)CC1 [Example 540, 6-(((S)-(1-(1-(tert-butyl)piperidin-4-yl)-1H-1,2,3-triazol-4-yl)(phenyl)methyl)amino)-8-chloro-4-(((R)-tetrahydro-2H-pyran-3-yl)amino) quinoline-3-carbonitrile]	6.39	5.29

Next, values leading:

pIC50 [1]	pEC50 [2]	SMILES
7.62	6.30	CC(C)(C)N1CCC(n2cc([C@@H](Nc3cc(Cl)c4ncc(C#N)c(Nc5cccc(Cl)c5Cl)c4c3)c3ccccc3)nn2)CC1 [Example 526, (S)-6-(((1-(1-(tert-butyl)piperidin-4-yl)-1H-1,2,3-triazol-4-yl)(phenyl)methyl)amino)-8-chloro-4-((2,3-dichlorophenyl)amino) quinoline-3-carbonitrile]
7.27	6.08	N#Cc1cnc2c(Cl)cc(N[C@@H](c3cccc(N4CCCS4(=O)=O)c3)c3c[nH]nn3)cc2c1Nc1ccc(Cl)c(Cl)c1F [Example 528, (S)-8-chloro-4-((3,4-dichloro-2-fluorophenyl)amino)-6-(((3-(1,1-dioxidoisothiazolidin-2-yl)phenyl)(1H-1,2,3-triazol-4-yl)methyl)amino)quinoline-3-carbonitrile]
8.70	7.15	N#Cc1cnc2c(Cl)cc(N[C@@H](c3ccccc3)c3cn(C4[C@H]5CNC[C@@H]45)nn3)cc2c1Nc1ccc(F)c(Cl)c1 (stereo partly drawn) [Example 529, 6-(((S)-(1-((1R,5S,6s)-3-azabicyclo[3.1.0]hexan-6-yl)-1H-1,2,3-triazol-4-yl)(phenyl)methyl)amino)-8-chloro-4-((3-chloro-4-fluorophenyl)amino) quinoline-3-carbonitrile]
7.14	6.18	CC[C@@H](Nc1c(C#N)cnc2c(Cl)cc(N[C@H](c3c[nH]nn3)c3ccccc3Cl)cc12)c1ccccc1 [Example 533, 8-chloro-6-(((S)-(2-chlorophenyl)(1H-1,2,3-triazol-4-yl)methyl)amino)-4-(((R)-1-phenylpropyl)amino) quinoline-3-carbonitrile]
8.40	6.30	N#Cc1cnc2c(Cl)cc(N[C@@H](c3ccccc3)c3cn([C@@H]4CCNC[C@H]4O)nn3)cc2c1Nc1cccc(Cl)c1 [Example 535, 8-chloro-4-((3-chlorophenyl)amino)-6-(((S)-(1-((3R,4R)-3-hydroxypiperidin-4-yl)-1H-1,2,3-triazol-4-yl)(phenyl)methyl)amino) quinoline-3-carbonitrile]
8.52	7.24	CC[C@@H](Nc1c(C#N)cnc2c(Cl)cc(N[C@@H](c3ccc(F)cc3)c3cn(C4CCN(C(C)(C)C)CC4)nn3)cc12)c1ccccc1 [Example 538, 6-(((S)-(1-(1-(tert-butyl)piperidin-4-yl)-1H-1,2,3-triazol-4-yl)(4-fluorophenyl)methyl)amino)-8-chloro-4-(((R)-1-phenylpropyl)amino) quinoline-3-carbonitrile]
6.47	5.51	CC(C)(C)N1CCC(n2cc([C@@H](Nc3cc(Cl)c4ncc(C#N)c(N[C@H]5CCCOC5)c4c3)c3ccccc3)nn2)CC1 [Example 539, 6-(((S)-(1-(1-(tert-butyl)piperidin-4-yl)-1H-1,2,3-triazol-4-yl)(phenyl)methyl)amino)-8-chloro-4-(((S)-tetrahydro-2H-pyran-3-yl)amino)quinoline-3-carbonitrile]
5.14	< 5.00	CC(C)n1cc([C@@H](Nc2cc(Cl)c3ncc(C#N)c(NC4CCN(C)CC4)c3c2)c2ccccc2)nn1 [Example 541, (S)-8-chloro-6-(((1-isopropyl-1H-1,2,3-triazol-4-yl)(phenyl)methyl)amino)-4-((1-methylpiperidin-4-yl)amino)quinoline-3-carbonitrile]
< 5.00	< 5.00	CC(C)n1cc([C@@H](Nc2cc(Cl)c3ncc(C#N)c(NCCCN(C)C)c3c2)c2ccccc2)nn1 [Example 542, (S)-8-chloro-4-((3-(dimethylamino)propyl)amino)-6-(((1-isopropyl-1H-1,2,3-triazol-4-yl)(phenyl)methyl)amino) quinoline-3-carbonitrile]
8.15	7.29	CC(C)(C)CNc1c(C#N)cnc2c(Cl)cc(N[C@@H](c3ccccc3)c3cn(C4CCN(C(C)(C)C)CC4)nn3)cc12 [Example 543, (S)-6-(((1-(1-(tert-butyl)piperidin-4-yl)-1H-1,2,3-triazol-4-yl)(phenyl)methyl)amino)-8-chloro-4-(neopentylamino)quinoline-3-carbonitrile]

— patent US10316017B2, “COT modulators and methods of use thereof” (Gilead Sciences, Inc., priority 2015, dated 2019)
